What is called inhibition is the percentage by which the read-out fell short of the control. The IC50 is the concentration that inhibits the measured activity by half. Lower therefore signals inhibition by little substance. One may read the Kd as the free concentration of one partner at which half of the binding sites on the other are occupied at equilibrium, for simple one-to-one binding. The CC50 is the concentration that lowers cell viability or growth by half. For orientation: Papp means the rate of passage across a membrane or cell layer, normalised by area and donor concentration. Lower therefore signals slow passage.

The target of series [1] is T1, Beta-secretase 1 (Homo sapiens, UniProt P56817). Description: Inhibition of BACE1 (unknown origin) at 10 uM using Rh-EVNLDAEFK-Quencher as substrate after 60 mins by FRET assay relative to control.
Series [2] addresses T1, Beta-secretase 1. Description: Inhibition of BACE1 (unknown origin) at 50 uM using Rh-EVNLDAEFK-Quencher as substrate after 60 mins by FRET assay relative to control.
In series [3] the target is T1, Beta-secretase 1. The experiment in a line: Inhibition of BACE1 (unknown origin) using Rh-EVNLDAEFK-Quencher as substrate after 60 mins by FRET assay.
Series [4] has as its target T1, Beta-secretase 1. Description: Binding affinity to BACE1 (unknown origin) by SPR method.
Series [5] in a line: Cytotoxicity against HEK293 cells assessed as decrease in cell viability after 72 hrs by CellTiter Glo luminescent assay. The series is classed as cell-based. The conditions noted are these: human. A general note: ATP-based viability assays read luminescence as a measure of living cells.
Another series in a line: in vitro. The settings on record: PAMPA. A general note: PAMPA measures passive passage across an artificial lipid membrane.
In series [6] the target is T1, Beta-secretase 1. Description: Inhibition of BACE1 (unknown origin) at 1 uM using Rh-EVNLDAEFK-Quencher as substrate after 60 mins by FRET assay.

T1 sequence (P56817 whole entry): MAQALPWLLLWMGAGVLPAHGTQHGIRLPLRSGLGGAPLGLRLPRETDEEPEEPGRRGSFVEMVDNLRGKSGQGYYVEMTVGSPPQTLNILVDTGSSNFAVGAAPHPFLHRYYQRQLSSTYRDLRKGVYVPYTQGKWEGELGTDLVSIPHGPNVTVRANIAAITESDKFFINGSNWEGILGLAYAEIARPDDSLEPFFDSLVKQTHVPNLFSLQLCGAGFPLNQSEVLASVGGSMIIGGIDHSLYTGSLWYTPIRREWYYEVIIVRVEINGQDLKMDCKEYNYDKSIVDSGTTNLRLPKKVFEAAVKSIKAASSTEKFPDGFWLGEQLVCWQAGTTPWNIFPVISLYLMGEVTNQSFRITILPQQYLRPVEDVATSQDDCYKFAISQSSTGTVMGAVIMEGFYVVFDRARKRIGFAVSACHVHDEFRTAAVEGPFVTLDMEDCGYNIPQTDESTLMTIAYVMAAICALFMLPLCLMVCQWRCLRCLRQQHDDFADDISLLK
Description for in vitro: Permeability of the compound at 25 ug/ml after 18 hrs by PAMPA

Turning to `COc1cccc(-c2nc(SCC(=O)Nc3nc(-c4cccc(Br)c4)cs3)[nH]c(=O)c2C#N)c1`, the inhibition was found to be 14.3% against Beta-secretase 1 [1] and 90.4% against Beta-secretase 1 [2]. Moreover, the IC50 at Beta-secretase 1 [3] came to 17.5 µM. Further, at Beta-secretase 1 [4], binding was characterised by a dissociation constant (Kd) of 1740 nM. For the same compound, the CC50 at 72 h in series [5] is greater than 50 µM. In “in vitro”, this compound had a Papp at 18 h, 25 ug/ml of 0.94 ×10⁻⁶ cm/s.
`COc1cccc(-c2nc(SCC(=O)Nc3nc(-c4cc(Cl)c(N)c(Cl)c4)c[nH]3)[nH]c(=O)c2C#N)c1`: the inhibition on Beta-secretase 1 [1] is 87.7%; against Beta-secretase 1 [6], 26.4%. Further, the IC50 against Beta-secretase 1 [3] was 3.2 µM. Also, on Beta-secretase 1 [4], the equilibrium dissociation constant (Kd) amounted to 169 nM. Moreover, the half-maximal cytotoxic concentration (CC50) at 72 h in series [5] is greater than 50 µM. This compound also gave a Papp at 18 h, 25 ug/ml in the series “in vitro” of 0.34 ×10⁻⁶ cm/s.
In turn, `Clc1cccc(Cl)c1N=C1NCCN1` [CLONIDINE] yielded a Papp at 18 h, 25 ug/ml in “in vitro” of 5.9 ×10⁻⁶ cm/s.
On to `N#Cc1c(-c2cccc(C(F)(F)F)c2)nc(SCC(=O)Nc2nc(-c3cc(Cl)c(N)c(Cl)c3)cs2)[nH]c1=O`, for which the inhibition stood at 13% against Beta-secretase 1 [1] and 86.1% on Beta-secretase 1 [2]. Further, the IC50 against Beta-secretase 1 [3] was found to be 13.4 µM. This compound also returned a Kd at Beta-secretase 1 [4] of 1330 nM. In addition, the CC50 at 72 h in series [5] was found to be 47.7 µM. In addition, the apparent permeability coefficient (Papp) at 18 h, 25 ug/ml in “in vitro” amounted to 0.88 ×10⁻⁶ cm/s.
Take `N#Cc1c(-c2cccc(OC(F)(F)F)c2)nc(SCC(=O)Nc2nc(-c3cc(Cl)c(N)c(Cl)c3)cs2)[nH]c1=O`: the inhibition against Beta-secretase 1 [1] was found to be 6.1%; against Beta-secretase 1 [2], 39.6%.
The like results for `CCOc1cccc(-c2nc(SCC(=O)Nc3nc(-c4cc(Cl)c(NC(C)=O)c(Cl)c4)cs3)[nH]c(=O)c2C#N)c1` were, in that order, 2.5% and 4.7%.
Consider `COc1cccc(-c2nc(SCC(=O)Nc3nc(-c4cc(Cl)c(N)c(Cl)c4)cs3)[nH]c(=O)c2C#N)c1`, for which the inhibition against Beta-secretase 1 [1] was found to be 58.9%; on Beta-secretase 1 [2], 91.8%. On Beta-secretase 1 [3], the IC50 came to 7.7 µM. Also, binding at Beta-secretase 1 [4] was put at a Kd of 861 nM. The CC50 at 72 h in series [5] was greater than 50 µM. The same compound yielded a Papp at 18 h, 25 ug/ml in “in vitro” of 0.11 ×10⁻⁶ cm/s.
Turning to `CCOc1cccc(-c2nc(SCC(=O)Nc3nc(-c4cc(Cl)c(N)c(Cl)c4)cs3)[nH]c(=O)c2C#N)c1`, the inhibition worked out at 24.5% against Beta-secretase 1 [1] and 79.9% at Beta-secretase 1 [2]. Further, 13.5 µM corresponded to half-maximal inhibition at Beta-secretase 1 [3] (IC50). In addition, the CC50 at 72 h in series [5] was greater than 50 µM. In addition, the Papp at 18 h, 25 ug/ml in the series “in vitro” came to 0.07 ×10⁻⁶ cm/s.
For the compound `COc1cccc(-c2nc(SCC(=O)Nc3nc(-c4cc(Cl)c(NC(C)=O)c(Cl)c4)cs3)[nH]c(=O)c2C#N)c1`, the inhibition amounted to 0.3% against Beta-secretase 1 [1] and 1.4% against Beta-secretase 1 [2].
For `CN[C@@H]1C[C@H]2O[C@@](C)([C@@H]1OC)n1c3ccccc3c3c4c(c5c6ccccc6n2c5c31)C(=O)NC4` [STAUROSPORINE], the CC50 at 72 h in series [5] was found to be 0.00354 µM.

For the origin of these results see ChEMBL document CHEMBL4118072, “2-Substituted-thio-N-(4-substituted-thiazol/1H-imidazol-2-yl)acetamides as BACE1 inhibitors: Synthesis, biological evaluation and docking studies” (Eur J Med Chem, 2017).
